One compound from patent US20210189444A1, “METHOD OF PURIFYING CANNABINOIDS FROM YEAST FERMENTATION BROTH” (Demetrix, Inc., priority 2019, published 2021) can be followed below.

A short description of this data set: solubility of CBGA and CBG in water as a function of pH (solubility curves, FIG. 4).

Structures are written as SMILES.

In the case of `CCCCCc1cc(O)c(C/C=C(\C)CCC=C(C)C)c(O)c1C(=O)O` [CBGA, cannabigerolic acid], the “solubility in aqueous phase” value (pH 11.5 (25% KOH), water:IPM 4:1) is “soluble”. In addition, the solubility in water entry (pH <2) was “insoluble”.
